Test results: US8241845B2, “Steroid 5α-reductase” (Health Research Inc., priority 2005, dated 2012)

T1: SRD5AIII (Homo sapiens, UniProt Q9H8P0)
T1 construct: expressed in transfected cells; host or cells: CV-1 (monkey kidney) cells infected with Ad-SRD5AIII; cell-free homogenate
T1 sequence (Q9H8P0 1-318): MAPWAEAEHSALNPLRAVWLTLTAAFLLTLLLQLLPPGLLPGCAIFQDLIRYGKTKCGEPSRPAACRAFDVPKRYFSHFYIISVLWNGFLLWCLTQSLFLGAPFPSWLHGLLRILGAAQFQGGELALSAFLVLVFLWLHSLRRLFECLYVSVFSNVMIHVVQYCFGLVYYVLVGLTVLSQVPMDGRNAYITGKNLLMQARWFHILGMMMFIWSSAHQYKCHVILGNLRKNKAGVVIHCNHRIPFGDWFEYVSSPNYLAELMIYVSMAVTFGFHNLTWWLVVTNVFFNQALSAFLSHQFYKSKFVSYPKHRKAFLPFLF

B1: SRD5AIII: novel steroid 5α-reductase isozyme, 318 amino acids, SEQ ID NO:2 (protein)
chain: T1 sequence (Q9H8P0 1-318)
modifications: human

How the values were obtained:
prostate cancer (CaP) [1] = test: Treatment of men with prostate cancer (CaP) with SRD5A inhibitors; assay type: in vivo, human; conditions: patients at Roswell Park Cancer Institute
SRD5A = conditions: cited from earlier work
prostate cancer (CaP) [2] = conditions: Thompson et al. 2003; cited from earlier work
SRD5AIII = target: T1, SRD5AIII; test: Recombinant SRD5AIII in vitro assay (conversion of T to DHT, TLC); assay type: biochemical
Procedure: Recombinant SRD5AIII in vitro assays. Ad-SRD5AIII infected CV-1 cells and uninfected CV-1 control cells were prepared and assayed for SRD5AIII using methods of Titus et al. (Titus et al. Clin Cancer Res 2005; 11:4365-4371) and Pratis et al. (Pratis et al. J Steroid Biochem Mol Biol 2000; 75:75-82). All steps prior to incubation were carried out at 4° C. SRD5AIII specific activity was expressed in pmol/mg protein/hr using Ad-SRD5AIII infected CV-1 cells.
Ad-SRD5AIII infected CV-1 cells or uninfected CV-1 cells were homogenized in 0.5 ml ice-cold homogenization buffer (50 mM potassium phosphate [pH 7.4], 0.25M sucrose, 1 mM EDTA, 1 mM dithiothreitol, 1 mM fresh phenylmethylsulfonyl chloride, 1× Complete™ protease inhibitor [Roche, Indianapolis, Ind.] using a PowerGen 125 (Fischer Scientific) for two 10-second bursts and sonicated (Branson Sonifier CD200, SmilthKine) at 20% power for 15 one-second bursts. Final homogenates were centrifuged at 500×g for 1 min to remove particulate. The resulting cell free supernatants were placed on ice and used immediately. Protein concentrations were measured using the procedure of Lowry et al. (Lowry et al. J Biol Chem 1951; 193:265-75).
The buffer for all incubations contained 100 mM Tris-citrate, 0.5 mM dithiothreitol, 0.5 mM NADPH and 1 μCi ^3H-testosterone (New England Nuclear, Boston, Mass.). […] Incubations were performed in total volume 250 μl at pH 7.0 and pH 5.0. […]
The conversion of T to dihydrotestosterone (DHT), androstanedione and androsterone was analyzed using thin layer chromatography (TLC, 33). […] Control incubations were analyzed as described above.
The amount of radioactive DHT, androstanedione and androsterone was calculated as percent total radioactivity (^3H) recovered from the thin layer chromatography lane. […]
Anti-6X-His and anti-X-press antibodies were used to evaluate the expression level of 6X-His and X-press-tagged SRD5AIII in infected CV1 cells. […] However, the molecular weight of the detected band was higher than the expected SRD5AIII molecular weight of about 37 kDa. […]

| pH optimum (SRD5AIII) | Molecule | Response in patients, early results (prostate cancer (CaP) [1]) | Inhibition of SRD5A activity (SRD5A) | Efficacy as treatment for CaP (prostate cancer (CaP) [2]) | SRD5AIII enzyme activity (SRD5AIII; pH 5.0, 1 μM T substrate, n=1) | SRD5AIII specific activity after subtracting background activity (SRD5AIII; pH 7.0, 5 μM T substrate, n=3, Ad-SRD5AIII infected CV-1 cell homogenate) [pmol/mg protein/hour] |
| --- | --- | --- | --- | --- | --- | --- |
| – | C[C@]12C=CC(=O)N[C@@H]1CC[C@@H]1[C@@H]2CC[C@]2(C)[C@@H](C(=O)Nc3cc(C(F)(F)F)ccc3C(F)(F)F)CC[C@@H]12 [dutasteride, Dutasteride] | incomplete remission | neither finasteride nor dutasteride inhibits SRD5A activity completely | – | – | – |
| – | CC(C)(C)NC(=O)[C@H]1CC[C@H]2[C@@H]3CC[C@H]4NC(=O)C=C[C@]4(C)[C@H]3CC[C@]12C [finasteride] | – | neither finasteride nor dutasteride inhibits SRD5A activity completely | Lack of efficacy | – | – |
| ~7.0 | B1 | – | – | – | not detected | 15.6 |
